Reference: patent US7897582B2, “Oligonucleotide compositions and methods for the modulation of the expression of B7 protein” (Isis Pharmaceuticals, Inc., priority 2003, dated 2011)
Strand notation (5' to 3'): a small letter for the sugar, then the base; units joined by * are phosphorothioate-linked, units joined directly phosphodiester-linked; [ ] holds rarer units or linkages, { } end groups; capitals alone tell only the bases. e = 2'-O-(2-methoxyethyl) (MOE); [5mC] = 5-methylcytosine; d = 2'-deoxy (DNA)

Tests used:
[1] = tested on: murine B7-2 (mB7-2); assay: Murine B7-2 cell surface expression in transfected COS-7 cells by flow cytometry; type: cell-based, mouse; conditions: for % B7-2 EXPRESSION: mouse B7-2 cell surface expression
Excerpt: (§1) Oligonucleotides (see Table 4) capable of inhibiting expression of murine B7-2 transiently expressed in COS-7 cells were identified in the following manner. A series of phosphorothioate oligonucleotides complementary to murine B7-2 (mB7-2) cDNA were screened for their ability to reduce mB7-2 levels (measured by flow cytometry as in Example 2, except that a conjugated anti-mB7-2 antibody (i.e., anti-mCD86-PE, PharMingen, San Diego, Calif.) in COS-7 cells transfected with an mB7-2 cDNA clone. Anti-mB7-2 antibody may also be obtained from the hybridoma deposited at the ATCC under accession No. HB-253. Oligonucleotides (see Table 2) capable of modulating murine B7-1 expression are isolated in like fashion, except that a conjugated anti-mB7-1 antibody is used in conjunction with COS-7 cells transfected with an mB7-1 cDNA clone.
(§2) B7 antisense oligonucleotides were tested for their effect on cell surface expression of both B7-1 and B7-2. Cell surface expression was measured as described in Example 1. Experiments were done for both human B7 and mouse B7.

[2] = tested on: murine B7-1; assay: Murine B7-1 cell surface expression in transfected COS-7 cells by flow cytometry; type: cell-based; conditions: mouse B7-1 cell surface expression, basal = 100%
Excerpt: as §1, §2

[3] = tested on: Mouse B7-2 mRNA; assay: Mouse B7-2 mRNA expression, screened as in Example 4; type: cell-based; parameters: % mRNA INHIBITION: concentration or dose not given beside the values; conditions: for % mRNA INHIBITION: screened as in Example 4; for % mRNA EXPRESSION: screened as in Example 4, basal = 100.0%
Procedure: For ribonuclease protection assays, cells were harvested 18 hours after completion of oligonucleotide treatment using a Totally RNA™ kit (Ambion, Austin, Tex.). The probes for the assay were generated from plasmids pcB7-2 (linearized by digestion with Bgl II) and pTRI-b-actin (Ambion Inc., Austin, Tex.). In vitro transcription of the linearized plasmid from the SP6 promoter was performed in the presence of α-^32P-UTP (800 Ci/mmole) yielding an antisense RNA complementary to the 3′ end of B7-2 (position 1044-1391). The probe was gel-purified after treatment with DNase I to remove DNA template. Ribonuclease protection assays were carried out using an RPA II™ kit (Ambion) according to the manufacturer's directions. Total RNA (5 μg) was hybridized overnight, at 42° C., with 10^5 cpm of the B7-2 probe or a control beta-actin probe. The hybridization reaction was then treated, at 37° C. for 30 minutes, with 0.4 units of RNase A and 2 units of RNase T1. Protected RNA was precipitated, resuspended in 10 μL of gel loading buffer and electrophoresed on a 6% acrylamide gel with 50% w/v urea at 20 W. The gel was then exposed and the lanes quantitated using a PhosphorImager (Molecular Dynamics, Sunnyvale, Calif.) essentially according to the manufacturer's instructions.
Oligonucleotides were screened as described in Example 4.

[4] = tested on: DBA/1LacJ mice with collagen-induced arthritis; assay: Collagen-induced arthritis (CIA) murine model; type: in vivo, mouse; conditions: CIA in DBA/1LacJ mice; for % Incidence: 10 mg/kg intraperitoneally daily from day -3, control 70%; for Peak day (day from onset of maximum swelling for each joint measure) / Severity (total clinical score divided by the total number of mice in the group): 10 mg/kg intraperitoneally daily; for Peak day (day from onset of maximum swelling for each joint measure): control 6.7 ± 2.9; for Severity (total clinical score divided by the total number of mice in the group): limbs graded 0-4, control 3.2 ± 1.1
Procedure: Collagen-induced arthritis (CIA) was used as a murine model for arthritis (Mussener, A., et al., Clin. Exp. Immunol., 1997, 107, 485-493). Female DBA/1LacJ mice (Jackson Laboratories, Bar Harbor, Me.) between the ages of 6 and 8 weeks were used to assess the activity of B7-1 antisense oligonucleotides.
On day 0, the mice were immunized at the base of the tail with 100 μg of bovine type II collagen which is emulsified in Complete Freund's Adjuvant (CFA). On day 7, a second booster dose of collagen was administered by the same route. On day 14, the mice were injected subcutaneously with 100 μg of LPS. Oligonucleotide was administered intraperitoneally daily (10 mg/kg bolus) starting on day −3 (three days before day 0) and continuing for the duration of the study. Oligonucleotide 17456 (SEQ ID NO. 173) is a fully phosphorothioated analog of 18122.
Weights were recorded weekly. Mice were inspected daily for the onset of CIA. Paw widths are rear ankle widths of affected and unaffected joints were measured three times a week using a constant tension caliper. Limbs were clinically evaluated and graded on a scale from 0-4 (with 4 being the highest).

[5] = tested on: Mouse B7-1 mRNA; assay: Mouse B7-1 mRNA expression, screened as in Example 4; type: cell-based; parameters: % mRNA INHIBITION: concentration or dose not given beside the values; conditions: Table 10
[6] = tested on: murine B7-2 (mB7-2); assay: mB7-2 cell surface expression in LPS-induced IC-21 cells by flow cytometry; type: cell-based, mouse; conditions: FIG. 9; for levels of induced mB7-2 expression: 3 μM; for reduction in the level of induced mB7-2 expression: 10 μM
Procedure: In order to further evaluate the murine B7-2 antisense oligonucleotides, the IC-21 cell line was used. IC-21 monocyte/macrophage cell line expresses both B7-1 and murine B7-2 (mB7-2) constitutively. A 2-fold induction of expression can be achieved by incubating the cells in the presence of lipopolysaccharide (LPS; GIBCO-BRL, Gaithersburg, Md.) (Hathcock et al., Science, 1993, 262, 905).
IC-21 cells (ATCC; accession No. TIB 186) were seeded at 80% confluency in 12-well plates in DMEM media with 10% FCS. The cells were allowed to adhere to the plate overnight. The following day, the medium was removed and the cells were washed with PBS. Then 500 μL of OptiMEM™ (GIBCO-BRL, Gaithersburg, Md.) supplemented with 15 μg/mL of Lipofectin™ (GIBCO-BRL, Gaithersburg, Md.) was added to each well. Oligonucleotides were then added directly to the medium at the indicated concentrations. After incubation for 4 hours, the cells were washed with PBS and incubated overnight in culture medium supplemented with 15 μg/mL of LPS. The following day, cells were harvested by scraping, then analyzed for cell surface expression by flow cytometry.

[7] = tested on: BALB/c mice with heart allograft; assay: Murine heart allograft rejection model; type: in vivo, mouse
Procedure: A murine model for evaluating compounds for their ability to inhibit heart allograft rejection has been previously described (Stepkowski et al., J. Immunol., 1994, 153, 5336). This model was used to evaluate the immunosuppressive capacity of antisense oligonucleotides to B7 proteins alone or in combination with antisense oligonucleotides to intercellular adhesion molecule-1 (ICAM-1).
Heart allograft rejection studies and oligonucleotide treatments of BALB/c mice were performed essentially as previously described (Stepkowski et al., J. Immunol., 1994, 153, 5336). Antisense oligonucleotides used included ISIS 11696, ISIS 3082 (targeted to ICAM-1) and ISIS 1082 (a control oligonucleotide targeted to the herpes virus UL-13 gene sequence). Dosages used were 1, 2, 2.5, 5 or 10 mg/kg of individual oligonucleotide (as indicated below); when combinations of oligonucleotides were administered, each oligonucleotide was given at a dosage of 1, 5 or 10 mg/kg (total oligonucleotide dosages of 2, 10 and 20 mg/kg, respectively). The survival times of the transplanted hearts and their hosts were monitored and recorded.

With “18089 (antisense eG*eT*e[5mC]*eA*eA*dA*dG*d[5mC]*dT*d[5mC]*dG*dT*dG*d[5mC]*dG*eG*e[5mC]*e[5mC]*e[5mC]*eA) [compound 18089]” the “% B7-2 EXPRESSION” value [1] was 36%, the “% B7-1 EXPRESSION” value [2] was 85% and the “% mRNA INHIBITION” value [3] was 79.1%. The “% mRNA EXPRESSION” value [3] was 20.9%, the “% Incidence” value [4] was 44.4% and the “Peak day (day from onset of maximum swelling for each joint measure)” value [4] was 6.8 ± 2.2 days. For the same substance, the “Severity (total clinical score divided by the total number of mice in the group)” value [4] was 2.3 ± 1.3.

With “18097 (antisense eT*eG*e[5mC]*e[5mC]*eA*dA*dG*d[5mC]*d[5mC]*d[5mC]*dA*dT*dG*dG*dT*eG*e[5mC]*eA*eT*e[5mC]) [compound 18097]” the “% B7-2 EXPRESSION” value [1] was 28%, the “% B7-1 EXPRESSION” value [2] was 87% and the “% mRNA INHIBITION” value [3] was 75.5%. For the same substance, the “% mRNA EXPRESSION” value [3] was 24.5%.

In the case of “18110 (antisense eA*eT*eG*eA*eG*dG*dA*dG*dA*dG*dT*dT*dG*dT*dA*eA*e[5mC]*eG*eG*e[5mC]) [compound 18110]”, the “% B7-2 EXPRESSION” value [1] is reported as 93%, the “% B7-1 EXPRESSION” value [2] is reported as 31% and the “% mRNA EXPRESSION” value [5] is reported as 21.0%. The “% mRNA INHIBITION” value [5] was 79.0%, the “% Incidence” value [4] was 55.6% and the “Peak day (day from onset of maximum swelling for each joint measure)” value [4] was 2.0 ± 0.8 days. For the same substance, the “Severity (total clinical score divided by the total number of mice in the group)” value [4] was 2.0 ± 1.3.

For “18113 (antisense eG*eT*eG*eA*eA*dG*dT*d[5mC]*d[5mC]*dT*d[5mC]*dT*dG*dA*d[5mC]*eA*e[5mC]*eG*eT*eG) [compound 18113]”, the “% B7-2 EXPRESSION” value [1] was 91%, the “% B7-1 EXPRESSION” value [2] was 25% and the “% mRNA EXPRESSION” value [5] was 24.6%. For the same substance, the “% mRNA INHIBITION” value [5] was 75.4%.

With “18119 (antisense eG*eT*eT*eA*eA*d[5mC]*dT*d[5mC]*dT*dA*dT*d[5mC]*dT*dT*dG*eT*eG*eT*e[5mC]*eA) [compound 18119]” the “% B7-2 EXPRESSION” value [1] was 98%, the “% B7-1 EXPRESSION” value [2] was 27% and the “% mRNA EXPRESSION” value [5] was 24.0%. The “% mRNA INHIBITION” value [5] was 76.0%.

With “CTA-AGT-AGT-GCT-AGC-CGG-GA (antisense CTAAGTAGTGCTAGCCGGGA; listed as DNA, chemistry not given here) [ISIS 11866, scrambled # 11696, reference compound]” the “inhibition of murine B7-2 cell surface expression” value ([1]; highest concentration tested (1000 nM)) was “less than 20%”, the “levels of induced mB7-2 expression” value [6] was “little effect” and the “reduction in the level of induced mB7-2 expression” value [6] was 40%.

In the case of “GGA-TTG-CCA-AGC-CCA-TGG-TG (GGATTGCCAAGCCCATGGTG; chemistry not given here) [ISIS 11696]”, the IC50 ([1]; COS-7 cells, FIG. 8) is reported as 0.2 to 0.3 µM, the “levels of induced mB7-2 expression” value [6] is reported as “greatly reduced” and the “reduction in the level of induced mB7-2 expression” value [6] is reported as “inhibited mB7-2 expression completely”. The mean survival time ([7]; 2 mg/kg/day for 7 days) was 9.3 ± 0.6 days and the mean survival time ([7]; 10 mg/kg/day for 7 days) was 9.3 ± 1.3 days.
